Source: patent publication US20090123979A1, “Methods of reducing the inhibitory effect of a tannin on the enzymatic hydrolysis of cellulosic material” (Novozymes, Inc., priority 2007, published 2009)

Molecular target: T1, Cellulolytic Enzyme Composition #1
T1 construct: other: PASC hydrolysis; mean ± SD; 0.01 g enzyme; Dixon plot linear regression intercept (1/Rate); other: AVICEL; rate from hydrolysis difference (%) at 0 and 6 hours; rate from hydrolysis difference; fused on or other part: The A. oryzae beta-glucosidase is the mature chain secreted behind the Humicola insolens endoglucanase V signal peptide, which is cleaved off
Test: PASC hydrolysis by Cellulolytic Enzyme Composition #1 with tannic acid
Assay type: biochemical, Trichoderma reesei
Details: mean ± SD, 0.01 g enzyme per liter, pH 5.0, 50° C., read-out: I50 (inhibitor concentration leading to 50% loss of hydrolysis rate)
Description: Initial hydrolysis rates were obtained from the first two hydrolysis time points (i.e., soluble sugar measurements) (with <20% hydrolysis extent in general, rate=(hydrolysis difference)/(time difference)). Double-reciprocal plots (1/(initial rate) vs 1/[cellulose] as function of tannic acid concentration) indicated a “mixed” type inhibition, but their complexity prevented extraction of simple inhibitor constants. Initial rate vs tannic acid concentration yielded an I50 (inhibitor concentration leading to 50% loss of hydrolysis rate) of 0.2±0.1 or 0.27±0.07 mM on PASC or AVICEL® hydrolysis, respectively

O=C(OC[C@H]1O[C@@H](OC(=O)c2cc(O)c(O)c(OC(=O)c3cc(O)c(O)c(O)c3)c2)[C@H](OC(=O)c2cc(O)c(O)c(OC(=O)c3cc(O)c(O)c(O)c3)c2)[C@@H](OC(=O)c2cc(O)c(O)c(OC(=O)c3cc(O)c(O)c(O)c3)c2)[C@@H]1OC(=O)c1cc(O)c(O)c(OC(=O)c2cc(O)c(O)c(O)c2)c1)c1cc(O)c(O)c(OC(=O)c2cc(O)c(O)c(O)c2)c1 [tannic acid, Tannic acid]
IC50: 200 ± 100 µM
